Experimental data published in patent publication KR20230059409A, “Egf 유래 신규 펩타이드 및 이의 용도” (고려대학교 산학협력단, priority 2021, dated 2023).
No end group written: not given here.

Experiments:
인간유래 중간엽줄기세포(hMSC) = test: 3D spheroid stem cell migration test (branch sprouting in collagen matrix); assay type: cell-based, human; settings: peptide in DMEM 10uM / 100uM, 37℃, 16 h; for extent of stem cell branches extending from 3D spheroid (Fig. 2): compared with EGF group or DMEM only
hMSC = test: 2D traction force microscope stem cell migration test; assay type: cell-based, human; settings: 24 h imaging; for effect on stem cell mobility (conclusion of the test): hMSC

| Substance | length of stem cell branches extending from 3D spheroid, quantified (Fig. 3) (인간유래 중간엽줄기세포(hMSC)) | extent of stem cell branches extending from 3D spheroid (Fig. 2) (인간유래 중간엽줄기세포(hMSC)) | stem cell migration speed (Fig. 7 and 8) (hMSC; hMSC on collagen-coated PA gel with fluorescent beads, compared among EGF, EGP 2, JEP 4 media) | effect on stem cell mobility (conclusion of the test) (hMSC) |
| --- | --- | --- | --- | --- |
| NTKVGYIGEREQYRDLK-NH2 [EGP2] | 줄기세포 가지가 상대적으로 긴 것으로 나타났다 | 줄기세포 가지가 가장 많이 뻗어나간 것을 확인 | 속도가 가장 빠른 것으로 나타났다 | 줄기세포의 이동성을 증진시키는 효과가 있음 |
| YCLHDGVSMYIEALDKYACN [JEP4] | 줄기세포 가지가 상대적으로 긴 것으로 나타났다 | 줄기세포 가지가 가장 많이 뻗어나간 것을 확인 | – | 줄기세포의 이동성을 증진시키는 효과가 있음 |
